Experiment: mn = molality of the nth substance listed, in mol/kg
Conditions: Liquid, Vibrating tube method

[Br-].[Br-].[Zn+2] [zinc bromide] + CO
Conditions	mass density [kg/m3]
348.24 K, 320 kPa, m1 = 0.05772	749.2
348.24 K, 338 kPa, m1 = 1.951	1012.66
348.24 K, 4981 kPa, m1 = 0.05772	755.32
348.24 K, 4997 kPa, m1 = 1.951	1018.61
348.24 K, 9997 kPa, m1 = 0.05772	761.44
348.24 K, 10010 kPa, m1 = 1.951	1024.67
348.24 K, 14982 kPa, m1 = 0.05772	767.11
348.24 K, 14997 kPa, m1 = 1.951	1030.41
348.24 K, 19995 kPa, m1 = 1.951	1035.89
348.24 K, 20002 kPa, m1 = 0.05772	772.47
348.24 K, 25006 kPa, m1 = 1.951	1041.15
348.24 K, 25019 kPa, m1 = 0.05772	777.52
348.24 K, 29980 kPa, m1 = 1.951	1046.17
348.24 K, 29988 kPa, m1 = 0.05772	782.26
348.24 K, 34988 kPa, m1 = 0.05772	786.8
348.24 K, 34988 kPa, m1 = 1.951	1051.04
348.24 K, 39992 kPa, m1 = 1.951	1055.74
348.24 K, 39996 kPa, m1 = 0.05772	791.14
373.24 K, 509 kPa, m1 = 0.3785	775.13
373.24 K, 510 kPa, m1 = 0.7158	822.07
373.24 K, 4989 kPa, m1 = 0.3785	782.12
373.24 K, 5012 kPa, m1 = 0.7158	828.98
373.24 K, 9999 kPa, m1 = 0.7158	836.05
373.24 K, 10005 kPa, m1 = 0.3785	789.3
373.24 K, 14990 kPa, m1 = 0.7158	842.63
373.24 K, 14993 kPa, m1 = 0.3785	795.89
373.24 K, 19988 kPa, m1 = 0.7158	848.79
373.24 K, 20013 kPa, m1 = 0.3785	802.08
373.24 K, 24986 kPa, m1 = 0.3785	807.84
373.24 K, 25005 kPa, m1 = 0.7158	854.61
373.24 K, 29988 kPa, m1 = 0.3785	813.28
373.24 K, 29996 kPa, m1 = 0.7158	860.06
373.24 K, 35005 kPa, m1 = 0.3785	818.47
373.24 K, 35010 kPa, m1 = 0.7158	865.28
373.24 K, 39999 kPa, m1 = 0.3785	823.36
373.24 K, 40008 kPa, m1 = 0.7158	870.23
373.25 K, 530 kPa, m1 = 0.05772	722.55
373.25 K, 5013 kPa, m1 = 0.05772	729.6
373.25 K, 10010 kPa, m1 = 0.05772	736.76
373.25 K, 14996 kPa, m1 = 0.05772	743.34
373.25 K, 20007 kPa, m1 = 0.05772	749.46
373.25 K, 25002 kPa, m1 = 0.05772	755.2
373.25 K, 29988 kPa, m1 = 0.05772	760.57
373.25 K, 35011 kPa, m1 = 0.05772	765.68
373.25 K, 40009 kPa, m1 = 0.05772	770.5
373.26 K, 510 kPa, m1 = 1.951	982.6
373.26 K, 4981 kPa, m1 = 1.951	989.17
373.26 K, 9999 kPa, m1 = 1.951	996.08
373.26 K, 14998 kPa, m1 = 1.951	1002.57
373.26 K, 19990 kPa, m1 = 1.951	1008.69
373.26 K, 25011 kPa, m1 = 1.951	1014.53
373.26 K, 29987 kPa, m1 = 1.951	1020.09
373.26 K, 34996 kPa, m1 = 1.951	1025.43
373.26 K, 39999 kPa, m1 = 1.951	1030.56
398.25 K, 874 kPa, m1 = 0.7158	791.54
398.25 K, 875 kPa, m1 = 0.3785	744.91
398.25 K, 4997 kPa, m1 = 0.7158	799.23
398.25 K, 5007 kPa, m1 = 0.3785	752.83
398.25 K, 9995 kPa, m1 = 0.7158	807.74
398.25 K, 9997 kPa, m1 = 0.3785	761.43
398.25 K, 14982 kPa, m1 = 0.7158	815.46
398.25 K, 15016 kPa, m1 = 0.3785	769.33
398.25 K, 19995 kPa, m1 = 0.7158	822.66
398.25 K, 19996 kPa, m1 = 0.3785	776.5
398.25 K, 25004 kPa, m1 = 0.7158	829.32
398.25 K, 25013 kPa, m1 = 0.3785	783.19
398.25 K, 29995 kPa, m1 = 0.3785	789.37
398.25 K, 29999 kPa, m1 = 0.7158	835.55
398.25 K, 34983 kPa, m1 = 0.7158	841.37
398.25 K, 34995 kPa, m1 = 0.3785	795.22
398.25 K, 39988 kPa, m1 = 0.7158	846.94
398.25 K, 40001 kPa, m1 = 0.3785	800.74
398.27 K, 890 kPa, m1 = 1.951	951.2
398.27 K, 899 kPa, m1 = 0.05772	692.91
398.27 K, 4987 kPa, m1 = 1.951	958.29
398.27 K, 5013 kPa, m1 = 0.05772	700.92
398.27 K, 9996 kPa, m1 = 1.951	966.33
398.27 K, 10001 kPa, m1 = 0.05772	709.63
398.27 K, 14992 kPa, m1 = 0.05772	717.48
398.27 K, 14992 kPa, m1 = 1.951	973.78
398.27 K, 19995 kPa, m1 = 0.05772	724.66
398.27 K, 20001 kPa, m1 = 1.951	980.78
398.27 K, 24985 kPa, m1 = 0.05772	731.27
398.27 K, 25015 kPa, m1 = 1.951	987.36
398.27 K, 29996 kPa, m1 = 1.951	993.57
398.27 K, 30002 kPa, m1 = 0.05772	737.46
398.27 K, 34980 kPa, m1 = 1.951	999.48
398.27 K, 34994 kPa, m1 = 0.05772	743.23
398.27 K, 39999 kPa, m1 = 0.05772	748.68
398.27 K, 40007 kPa, m1 = 1.951	1005.18
